According to patent publication US20250326739A1, “CD38 MODULATORS AND USES THEREOF” (Aeovian Pharmaceuticals, Inc., priority 2022, published 2025):
Structures can show the parent of a compound that is named as a salt.

Experiments:
[1] = target: mouse CD38 (Mus musculus (Mouse), UniProt P56528); assay: NAD+ cyclase activity assay with mouse recombinant CD38 protein; type: biochemical; details: 0.6 nM mouse CD38, 15.8 μM e-NAD substrate, fluorescence read-out
Protocol: (§1) Example 5: NAD^+ Cydase Activity Assay with Human or Mouse Recombinant CD38 Protein
(§2) The following assay was used to determine the ability of compounds of the invention to inhibit the hydrolysis of NAD^+ by the human or mouse enzyme, CD38.
(§3) Reaction buffer: 40 mM HEPES/NaOH pH 7.5, 250 mM sucrose, 0.01% Tween
(§4) Final concentrations: 0.6 nM mouse CD38 (4947-AC, Bio-Techne GmbH) 1.9 nM human CD38 (AVI2404, Bio-Techne GmbH)
(§5) Substrate: 15.8 μM Nicotinamide 1,N6-ethenoadenine dinucleotide (E-NAD)
(§6) Read-out: Fluorescence intensity (extinction 300 nm/emission 410 nm)
(§7) Required reaction buffer, required CD38 concentration in reaction buffer and required e-NAD concentration in reaction buffer were prepared. Thereafter, 8 μL of CD38 in reaction buffer were added to High Control and compound concentration wells in 384 well plate (Corning #4514, 384 well, nonbinding surface, low volume, round bottom) and 8 μL of reaction buffer to Low Control. Compound dilutions were transferred via pintool technology that transfers 42.5 nL compound dilutions (12-point dose-response with factor three dilutions in 100% DMSO) well-to-well. Plate was subsequently shaken for 15 s at 1450 rpm and sealed for incubation for 30 min at room temperature. Thereafter, 2 μL of e-NAD in reaction buffer were added with Integra Voyager. After shaking for 15 s at 1450 rpm, plate was sealed, and assay signal was measured continuously with PHERAstar® fluorescence intensity module (extinction 300 nm/emission 410 nm).
(§8) Dose-response curves were constructed using twelve-point factor three dilutions in triplicates per plate. High control (full enzyme activity) was set to assay signal of CD38 and e-NAD in presence of vehicle (DMSO) and Low control (full enzyme inhibition) was set to assay signal of e-NAD and vehicle (DMSO) in absence of CD38. For data analysis, fluorescent signal of traces corresponding to each compound concentration and High and Low control was monitored over time. Each run, High Control (full enzyme activity) was fitted to Linear equation via GraphPad Prism to determine CD38 activity from the slope and determine the time interval of linear phase of reaction to account for minor fluctuations. Thereafter, slopes of all compound concentrations were determined via fitting to same linear equation (GraphPad Prism) over the same time interval as determined for High control. Percentage inhibition was calculated via normalization to High and Low Control via the equation: %−inhibition=100*(1−((Sample−Low control)/(High control−Low control))) Half maximal inhibitory concentration (IC50) values are yielded from the inflection point of the corresponding curve by fitting of resulting percentage inhibition values to standard equation (4 Parameter Logistic Model or Sigmoidal Dose-Response Model) via Excel Fit. Unless otherwise stated, fitting of curves was fixed to 100%-inhibition and unlocked for 0%-inhibition.

[2] = target: human CD38 (Homo sapiens (Human), UniProt P28907); assay: NAD+ cyclase activity assay with human recombinant CD38 protein; type: biochemical; details: 1.9 nM human CD38, 15.8 μM e-NAD substrate, fluorescence read-out
human CD38, sequence (P28907 whole entry): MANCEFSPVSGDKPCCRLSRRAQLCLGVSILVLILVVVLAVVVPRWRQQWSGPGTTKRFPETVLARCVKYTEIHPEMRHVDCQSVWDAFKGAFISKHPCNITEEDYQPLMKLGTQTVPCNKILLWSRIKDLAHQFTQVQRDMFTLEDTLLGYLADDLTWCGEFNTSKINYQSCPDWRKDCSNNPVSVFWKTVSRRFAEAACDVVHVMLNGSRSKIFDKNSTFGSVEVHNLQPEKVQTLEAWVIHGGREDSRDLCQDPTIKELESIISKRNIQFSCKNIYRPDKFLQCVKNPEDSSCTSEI
Protocol: as §1, §2, §3, §4, §5, §6, §7, §8

mouse CD38, sequence (P56528 whole entry): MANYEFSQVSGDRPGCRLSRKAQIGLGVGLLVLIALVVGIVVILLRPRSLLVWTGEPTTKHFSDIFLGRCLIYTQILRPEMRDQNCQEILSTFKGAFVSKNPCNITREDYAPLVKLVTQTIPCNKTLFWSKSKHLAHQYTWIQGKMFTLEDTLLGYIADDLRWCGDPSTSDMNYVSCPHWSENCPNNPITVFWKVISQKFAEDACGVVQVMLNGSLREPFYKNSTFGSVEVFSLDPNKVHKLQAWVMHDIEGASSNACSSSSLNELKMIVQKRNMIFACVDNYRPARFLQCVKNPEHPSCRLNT

Cc1cc(C(=O)N[C@H]2CCCS(=O)(=O)C2)nc(-n2ccnc2)c1 [Compound 84A, (S)—N-(1,1-Dioxidotetrahydro-2H-thiopyran-3-yl)-6-(1H-imidazol-1-yl)-4-methylpicolinamide]
IC50 [1]: 10 to 100 nM
IC50 [2]: 100 to 1000 nM

Cc1cc(C(=O)N[C@@H]2CCC(=O)NC2=O)nc(-n2ccnc2)c1 [Compound 63A, (R)—N-(2,6-Dioxopiperidin-3-yl)-6-(1H-imidazol-1-yl)-4-methylpicolinamide]
IC50 [1]: 10 to 100 nM
IC50 [2]: > 1000 nM

Cc1cc(C(=O)NC2COCCC2(F)F)nc(-n2ccnc2)c1 (centres unmarked) [Compound 25A, N-(4,4-Difluorotetrahydro-2H-pyran-3-yl)-6-(1H-imidazol-1-yl)-4-methylpicolinamide]
IC50 [1]: 1 to 10 nM
IC50 [2]: 30 to 100 nM

Cc1cc(C(=O)N[C@@H]2CCCNC2)nc(-n2ccnc2)c1 [Compound 51A, (R)-6-(1H-Imidazol-1-yl)-4-methyl-N-(piperidin-3-yl)picolinamide dihydrochloride]
IC50 [1]: > 100 nM
IC50 [2]: > 1000 nM

COCCC(=O)N1CCC(NC(=O)c2cc(C)cc(-n3ccnc3)n2)CC1 [Compound 20A, 6-(1H-Imidazol-1-yl)-N-(1-(3-methoxypropanoyl)piperidin-4-yl)-4-methylpicolinamide]
IC50 [1]: 1 to 10 nM
IC50 [2]: 30 to 100 nM

CCCS(=O)(=O)N1CCC(NC(=O)c2cc(C)cc(-n3ccnc3)n2)CC1 [Compound 6A, 6-(1H-Imidazol-1-yl)-4-methyl-N-(1-(propylsulfonyl)piperidin-4-yl)picolinamide]
IC50 [1]: 1 to 10 nM
IC50 [2]: < 30 nM

Cc1ccc(-n2ccnc2)nc1C(=O)NC1CCN(S(C)(=O)=O)CC1 [Compound 79A, 6-(1H-Imidazol-1-yl)-3-methyl-N-(1-(methylsulfonyl)piperidin-4-yl)picolinamide]
IC50 [1]: 10 to 100 nM
IC50 [2]: 100 to 1000 nM

Cc1ccc(-n2ccnc2)nc1C(=O)N[C@@H]1CCCOC1 [Compound 81A, (R)-6-(1H-Imidazol-1-yl)-3-methyl-N-(tetrahydro-2H-pyran-3-yl)picolinamide]
IC50 [1]: 10 to 100 nM
IC50 [2]: 100 to 1000 nM

COc1cc(C(=O)NC2CCN(S(C)(=O)=O)CC2)nc(-n2ccnc2)c1 [Compound 15A, 6-(1H-Imidazol-1-yl)-4-methoxy-N-(1-(methylsulfonyl)piperidin-4-yl)picolinamide]
IC50 [1]: 1 to 10 nM
IC50 [2]: 30 to 100 nM

Cc1cc(C(=O)NC2CCN(S(=O)(=O)N(C)C)CC2)nc(-n2ccnc2)c1 [Compound 18A, N-(1-(N,N-Dimethylsulfamoyl)piperidin-4-yl)-6-(1H-imidazol-1-yl)-4-methylpicolinamide]
IC50 [1]: 1 to 10 nM
IC50 [2]: < 30 nM

Cc1cc(C(=O)N[C@H]2COCCC2(F)F)nc(-n2ccnc2)c1 [Compound 70A, (S)—N-(4,4-Difluorotetrahydro-2H-pyran-3-yl)-6-(1H-imidazol-1-yl)-4-methylpicolinamide]
IC50 [1]: 1 to 10 nM
IC50 [2]: 30 to 100 nM

Cc1cc(C(=O)NC2CCS(=O)(=O)C2)nc(-n2ccnc2)c1 (centres unmarked) [Compound 23A, N-(1,1-Dioxidotetrahydrothiophen-3-yl)-6-(1H-imidazol-1-yl)-4-methylpicolinamide]
IC50 [1]: 1 to 10 nM
IC50 [2]: 30 to 100 nM

Cc1cc(C(=O)N[C@@H]2CCS(=O)(=O)C2)nc(-n2ccnc2)n1 [Compound 68A, (R)—N-(1,1-Dioxidotetrahydrothiophen-3-yl)-2-(1H-imidazol-1-yl)-6-methylpyrimidine-4-carboxamide]
IC50 [1]: < 1 nM
IC50 [2]: < 30 nM

Cc1cc(C(=O)NC2CCC2)nc(-n2ccnc2)c1 [Compound 12A, N-Cyclobutyl-6-(1H-imidazol-1-yl)-4-methylpicolinamide]
IC50 [1]: 1 to 10 nM
IC50 [2]: 30 to 100 nM

Cc1cc(C(=O)N[C@H]2CCN(S(C)(=O)=O)C2)nc(-n2ccnc2)c1 [Compound 46A, (S)-6-(1H-imidazol-1-yl)-4-methyl-N-(1-(methylsulfonyl)pyrrolidin-3-yl)picolinamide]
IC50 [1]: 1 to 10 nM
IC50 [2]: 100 to 1000 nM

Cc1cc(C(=O)N[C@@H]2CCNC2)nc(-n2ccnc2)c1 [Compound 52A, (R)-6-(1H-Imidazol-1-yl)-4-methyl-N-(pyrrolidin-3-yl)picolinamide dihydrochloride]
IC50 [1]: > 100 nM
IC50 [2]: > 1000 nM

Cc1cc(C(=O)N[C@@H]2CCCNC2=O)nc(-n2ccnc2)c1 [Compound 58A, (R)-6-(1H-Imidazol-1-yl)-4-methyl-N-(2-oxopiperidin-3-yl)picolinamide]
IC50 [1]: 10 to 100 nM
IC50 [2]: > 1000 nM

Cc1cc(C(=O)NC2CCN(C(=O)N(C)C)CC2)nc(-n2ccnc2)c1 [Compound 21A, N-(1-(Dimethylcarbamoyl)piperidin-4-yl)-6-(1H-imidazol-1-yl)-4-methylpicolinamide]
IC50 [1]: 1 to 10 nM
IC50 [2]: 30 to 100 nM

Cc1cc(C(=O)N[C@@H]2CCCN(C)C2=O)nc(-n2ccnc2)c1 [Compound 56A, (R)-6-(1H-Imidazol-1-yl)-4-methyl-N-(1-methyl-2-oxopiperidin-3-yl)picolinamide]
IC50 [1]: > 100 nM
IC50 [2]: > 1000 nM

Cc1cc(C(=O)N[C@@H]2CCN(S(C)(=O)=O)C2)nc(-n2ccnc2)c1 [Compound 53A, (R)-6-(1H-Imidazol-1-yl)-4-methyl-N-(1-(methylsulfonyl)pyrrolidin-3-yl)picolinamide]
IC50 [1]: 1 to 10 nM
IC50 [2]: 100 to 1000 nM

Cc1cc(C(=O)N[C@H]2COCC(F)(F)C2)nc(-n2ccnc2)c1 [Compound 66A, (R)—N-(5,5-Difluorotetrahydro-2H-pyran-3-yl)-6-(1H-imidazol-1-yl)-4-methylpicolinamide]
IC50 [1]: < 1 nM
IC50 [2]: 30 to 100 nM

Cc1cc(C(=O)N[C@@H]2CCCS(=O)(=O)C2)nc(-n2ccnc2)c1 [Compound 57A, (R)—N-(1,1-Dioxidotetrahydro-2H-thiopyran-3-yl)-6-(1H-imidazol-1-yl)-4-methylpicolinamide]
IC50 [1]: 1 to 10 nM
IC50 [2]: 30 to 100 nM

O=C(N[C@@H]1CCS(=O)(=O)C1)c1cc(C(F)(F)F)nc(-n2ccnc2)n1 [Compound 77A, (R)—N-(1,1-Dioxidotetrahydrothiophen-3-yl)-2-(1H-imidazol-1-yl)-6-(trifluoromethyl)pyrimidine-4-carboxamide]
IC50 [1]: 1 to 10 nM
IC50 [2]: 30 to 100 nM

Cc1cc(C(=O)NC2CCOC(C)C2)nc(-n2ccnc2)c1 (centres unmarked) [Compound 30A, 6-(1H-Imidazol-1-yl)-4-methyl-N-(2-methyltetrahydro-2H-pyran-4-yl)picolinamide]
IC50 [1]: 1 to 10 nM
IC50 [2]: 30 to 100 nM

Cc1cc(C(=O)NC2CCCOC2)nc(-n2ccnc2)c1 (centres unmarked) [Compound 9A, 6-(1H-Imidazol-1-yl)-4-methyl-N-(tetrahydro-2H-pyran-3-yl)picolinamide]
IC50 [1]: 1 to 10 nM
IC50 [2]: < 30 nM

Cc1cc(C(=O)N[C@@H]2COCCC2(F)F)nc(-n2ccnc2)c1 [Compound 71A, (R)—N-(4,4-Difluorotetrahydro-2H-pyran-3-yl)-6-(1H-imidazol-1-yl)-4-methylpicolinamide]
IC50 [1]: < 1 nM
IC50 [2]: 30 to 100 nM

Cc1cc(C(=O)NC2CCOC(C)(C)C2)nc(-n2ccnc2)c1 (centres unmarked) [Compound 24A, N-(2,2-Dimethyltetrahydro-2H-pyran-4-yl)-6-(1H-imidazol-1-yl)-4-methylpicolinamide]
IC50 [1]: 1 to 10 nM
IC50 [2]: 100 to 1000 nM

Cc1cc(C(=O)NC2CCN(S(=O)(=O)C3CC3)CC2)nc(-n2ccnc2)c1 [Compound 3A, N-(1-(cyclopropylsulfonyl)piperidin-4-yl)-6-(1H-imidazol-1-yl)-4-methylpicolinamide]
IC50 [1]: 1 to 10 nM
IC50 [2]: < 30 nM

Cc1cc(C(=O)N[C@@H]2CCN(C(=O)OC(C)(C)C)C2)nc(-n2ccnc2)c1 [Compound 43A, tert-Butyl (R)-3-(6-(1H-imidazol-1-yl)-4-methylpicolinamido)pyrrolidine-1-carboxylate]
IC50 [1]: 1 to 10 nM
IC50 [2]: < 30 nM

Cc1cc(C(=O)NC2CCOCC2(C)C)nc(-n2ccnc2)c1 (centres unmarked) [Compound 27A, N-(3,3-Dimethyltetrahydro-2H-pyran-4-yl)-6-(1H-imidazol-1-yl)-4-methylpicolinamide]
IC50 [1]: 10 to 100 nM
IC50 [2]: 100 to 1000 nM

Cc1cc(C(=O)NC2CC3CCC(C2)O3)nc(-n2ccnc2)c1 (centres unmarked) [Compound 28A, N-(8-Oxabicyclo[3.2.1]octan-3-yl)-6-(1H-imidazol-1-yl)-4-methylpicolinamide]
IC50 [1]: 1 to 10 nM
IC50 [2]: 100 to 1000 nM
